According to ChEMBL document CHEMBL4308841, “Synthesis, in vitro antiproliferative activity, and kinase inhibitory effects of pyrazole-containing diarylureas and diarylamides” (Eur J Med Chem, 2018):

How the values were obtained:
[1] = system: OVCAR-5; assay: Growth inhibition of human OVCAR5 cells incubated for 48 hrs by sulforhodamine B assay; assay type: functional, cell-based; settings: OVCAR-5, 48 h
[2] = system: Malme-3M; assay: Growth inhibition of human MALME-3M cells assessed as cell growth at 1 uM incubated for 48 hrs by sulforhodamine B assay relative to control; assay type: functional; settings: read-out: Activity
[3] = system: SK-MEL-2; assay: Growth inhibition of human SK-MEL-2 cells incubated for 48 hrs by sulforhodamine B assay; assay type: functional, cell-based; settings: SK-MEL-2, 48 h
[4] = system: ACHN; assay: Growth inhibition of human ACHN cells assessed as cell growth at 0.1 uM incubated for 48 hrs by sulforhodamine B assay relative to control; assay type: functional; settings: read-out: Activity
[5] = system: SN12C; assay: Growth inhibition of human SN12C cells incubated for 48 hrs by sulforhodamine B assay; assay type: functional, cell-based
[6] = system: 786-0; assay: Growth inhibition of human 786-0 cells incubated for 48 hrs by sulforhodamine B assay; assay type: functional, cell-based; settings: 786-0, 48 h
[7] = system: SR; assay: Growth inhibition of human SR cells assessed as cell growth at 0.1 uM incubated for 48 hrs by sulforhodamine B assay relative to control; assay type: functional; settings: read-out: Activity
[8] = system: NCI-H322M; assay: Growth inhibition of human NCI-H322M cells incubated for 48 hrs by sulforhodamine B assay; assay type: functional, cell-based
[9] = system: SN12C; assay: Growth inhibition of human SN12C cells assessed as cell growth at 1 uM incubated for 48 hrs by sulforhodamine B assay relative to control; assay type: functional; settings: read-out: Activity
[10] = system: SK-MEL-28; assay: Growth inhibition of human SK-MEL-28 cells assessed as cell growth at 100 uM incubated for 48 hrs by sulforhodamine B assay relative to control; assay type: functional; settings: SK-MEL-28, 48 h, read-out: Activity
[11] = system: COLO 205; assay: Growth inhibition of human COLO205 cells assessed as cell growth at 0.01 uM incubated for 48 hrs by sulforhodamine B assay relative to control; assay type: functional; settings: COLO 205, 48 h, read-out: Activity
[12] = system: UACC-62; assay: Growth inhibition of human UACC62 cells assessed as cell growth at 0.1 uM incubated for 48 hrs by sulforhodamine B assay relative to control; assay type: functional; settings: UACC-62, 48 h, read-out: Activity
[13] = system: HL-60(TB); assay: Growth inhibition of human HL-60(TB) cells assessed as cell growth at 100 uM incubated for 48 hrs by sulforhodamine B assay relative to control; assay type: functional; settings: HL-60, 48 h, read-out: Activity
[14] = system: 786-0; assay: Growth inhibition of human 786-0 cells assessed as cell growth at 0.01 uM incubated for 48 hrs by sulforhodamine B assay relative to control; assay type: functional; settings: 786-0, 48 h, read-out: Activity
[15] = system: PC-3; assay: Growth inhibition of human PC3 cells assessed as cell growth at 0.01 uM incubated for 48 hrs by sulforhodamine B assay relative to control; assay type: functional; settings: PC-3, 48 h, read-out: Activity
[16] = system: UACC-257; assay: Growth inhibition of human UACC257 cells assessed as cell growth at 1 uM incubated for 48 hrs by sulforhodamine B assay relative to control; assay type: functional; settings: UACC-257, 48 h, read-out: Activity
[17] = system: PC-3; assay: Growth inhibition of human PC3 cells assessed as cell growth at 100 uM incubated for 48 hrs by sulforhodamine B assay relative to control; assay type: functional; settings: PC-3, 48 h, read-out: Activity
[18] = system: RXF 393; assay: Growth inhibition of human RXF393 cells assessed as cell growth at 0.01 uM incubated for 48 hrs by sulforhodamine B assay relative to control; assay type: functional; settings: RXF 393, 48 h, read-out: Activity
[19] = system: SK-MEL-2; assay: Growth inhibition of human SK-MEL-2 cells assessed as cell growth at 0.01 uM incubated for 48 hrs by sulforhodamine B assay relative to control; assay type: functional; settings: SK-MEL-2, 48 h, read-out: Activity
[20] = system: HCT-116; assay: Growth inhibition of human HCT116 cells assessed as cell growth at 0.1 uM incubated for 48 hrs by sulforhodamine B assay relative to control; assay type: functional; settings: HCT-116, 48 h, read-out: Activity
[21] = system: NCI-H460; assay: Growth inhibition of human NCI-H460 cells assessed as cell growth at 1 uM incubated for 48 hrs by sulforhodamine B assay relative to control; assay type: functional; settings: NCI-H460, 48 h, read-out: Activity
[22] = system: RXF 393; assay: Growth inhibition of human RXF393 cells assessed as cell growth at 100 uM incubated for 48 hrs by sulforhodamine B assay relative to control; assay type: functional; settings: RXF 393, 48 h, read-out: Activity
[23] = system: SF-539; assay: Growth inhibition of human SF539 cells assessed as cell growth at 0.01 uM incubated for 48 hrs by sulforhodamine B assay relative to control; assay type: functional; settings: SF-539, 48 h, read-out: Activity
[24] = system: MOLT-4; assay: Growth inhibition of human MOLT4 cells assessed as cell growth at 0.1 uM incubated for 48 hrs by sulforhodamine B assay relative to control; assay type: functional; settings: MOLT-4, 48 h, read-out: Activity
[25] = system: NCI/ADR-RES; assay: Growth inhibition of human NCI/ADR-RES cells assessed as cell growth at 100 uM incubated for 48 hrs by sulforhodamine B assay relative to control; assay type: functional; settings: read-out: Activity
[26] = system: HOP-62; assay: Growth inhibition of human HOP62 cells assessed as cell growth at 0.01 uM incubated for 48 hrs by sulforhodamine B assay relative to control; assay type: functional; settings: HOP-62, 48 h, read-out: Activity
[27] = system: SK-OV-3; assay: Growth inhibition of human SKOV3 cells assessed as cell growth at 100 uM incubated for 48 hrs by sulforhodamine B assay relative to control; assay type: functional; settings: SK-OV-3, 48 h, read-out: Activity
[28] = system: RXF 393; assay: Growth inhibition of human RXF393 cells assessed as cell growth at 0.1 uM incubated for 48 hrs by sulforhodamine B assay relative to control; assay type: functional; settings: RXF 393, 48 h, read-out: Activity
[29] = system: SNB-19; assay: Growth inhibition of human SNB19 cells assessed as cell growth at 0.1 uM incubated for 48 hrs by sulforhodamine B assay relative to control; assay type: functional; settings: SNB-19, 48 h, read-out: Activity
[30] = system: MOLT-4; assay: Growth inhibition of human MOLT4 cells incubated for 48 hrs by sulforhodamine B assay; assay type: functional, cell-based; settings: MOLT-4, 48 h
[31] = read-out: LC50 (the source's name)
[32] = read-out: pLC50 (the source's name) (converted)

COc1cc(Cl)cc(-c2nn(-c3cccc(NC(=O)Nc4cccc(C(F)(F)F)c4)c3)cc2-c2ccncc2)c1
GI50 ([1]; read-out: GI50): 3.06 µM | CC50 [1, 31]: > 100 µM | TGI ([1]; read-out: TGI): 30.1 µM | GI50 ([1]; read-out: pGI50 (converted)): 3.09 µM | CC50 [1, 32]: > 100 µM | TGI ([1]; read-out: pTGI (converted)): 30.2 µM | growth at 1 µM [2]: 75% | GI50 ([3]; read-out: GI50): 1.29 µM | CC50 [3, 31]: 73.4 µM | TGI ([3]; read-out: TGI): 30.5 µM | GI50 ([3]; read-out: pGI50 (converted)): 1.29 µM | CC50 [3, 32]: 7.41 µM | TGI ([3]; read-out: pTGI (converted)): 3.09 µM | growth at 0.1 µM [4]: 92% | GI50 ([5]; read-out: GI50): 2.06 µM | LC50 ([5]; read-out: LC50): > 100 µM | TGI ([5]; read-out: TGI): 15.5 µM | GI50 ([5]; read-out: pGI50 (converted)): 2.04 µM | LC50 ([5]; read-out: pLC50 (converted)): > 100 µM | TGI ([5]; read-out: pTGI (converted)): 18.6 µM | GI50 ([6]; read-out: GI50): 1.94 µM | CC50 [6, 31]: 67.1 µM | TGI ([6]; read-out: TGI): 57.5 µM | GI50 ([6]; read-out: pGI50 (converted)): 1.95 µM | CC50 [6, 32]: 67.6 µM | TGI ([6]; read-out: pTGI (converted)): 6.76 µM | growth at 0.1 µM [7]: 93% | GI50 ([8]; read-out: GI50): 2.53 µM | CC50 [8, 31]: > 100 µM | TGI ([8]; read-out: TGI): 22.9 µM | GI50 ([8]; read-out: pGI50 (converted)): 2.63 µM | CC50 [8, 32]: > 100 µM | TGI ([8]; read-out: pTGI (converted)): 22.4 µM | growth at 1 µM [9]: 59% | growth at 100 µM [10]: -25% | growth at 0.01 µM [11]: 100% | growth at 0.1 µM [12]: 96% | growth at 100 µM [13]: -28% | growth at 0.01 µM [14]: 99% | growth at 0.01 µM [15]: 91% | growth at 1 µM [16]: 78% | growth at 100 µM [17]: -35% | growth at 0.01 µM [18]: 93% | growth at 0.01 µM [19]: 95% | growth at 0.1 µM [20]: 99% | growth at 1 µM [21]: 45% | growth at 100 µM [22]: -80% | growth at 0.01 µM [23]: 100% | growth at 0.1 µM [24]: 55% | growth at 100 µM [25]: -22% | growth at 0.01 µM [26]: 96% | growth at 100 µM [27]: -3% | growth at 0.1 µM [28]: 92% | growth at 0.1 µM [29]: 96% | GI50 ([30]; read-out: GI50): 1.13 µM | CC50 [30, 31]: > 100 µM | TGI ([30]; read-out: TGI): 43.5 µM | GI50 ([30]; read-out: pGI50 (converted)): 1.12 µM | CC50 [30, 32]: > 100 µM | TGI ([30]; read-out: pTGI (converted)): 4.37 µM

COc1cc(Cl)cc(-c2nn(-c3cccc(NC(=O)Nc4ccc(Cl)c(Cl)c4)c3)cc2-c2ccncc2)c1
GI50 ([1]; read-out: GI50): 4.3 µM | CC50 [1, 31]: > 100 µM | TGI ([1]; read-out: TGI): > 100 µM | GI50 ([1]; read-out: pGI50 (converted)): 4.37 µM | CC50 [1, 32]: > 100 µM | TGI ([1]; read-out: pTGI (converted)): > 100 µM | growth at 1 µM [2]: 77% | GI50 ([3]; read-out: GI50): 1.54 µM | CC50 [3, 31]: 8.54 µM | TGI ([3]; read-out: TGI): 37.4 µM | GI50 ([3]; read-out: pGI50 (converted)): 1.62 µM | CC50 [3, 32]: 8.51 µM | TGI ([3]; read-out: pTGI (converted)): 3.72 µM | growth at 0.1 µM [4]: 96% | GI50 ([5]; read-out: GI50): 3.1 µM | LC50 ([5]; read-out: LC50): > 100 µM | TGI ([5]; read-out: TGI): > 100 µM | GI50 ([5]; read-out: pGI50 (converted)): 3.09 µM | LC50 ([5]; read-out: pLC50 (converted)): > 100 µM | TGI ([5]; read-out: pTGI (converted)): > 100 µM | GI50 ([6]; read-out: GI50): 2.31 µM | CC50 [6, 31]: > 100 µM | TGI ([6]; read-out: TGI): 75.4 µM | GI50 ([6]; read-out: pGI50 (converted)): 2.29 µM | CC50 [6, 32]: > 100 µM | TGI ([6]; read-out: pTGI (converted)): 7.76 µM | growth at 0.1 µM [7]: 51% | GI50 ([8]; read-out: GI50): 3.26 µM | CC50 [8, 31]: > 100 µM | TGI ([8]; read-out: TGI): > 100 µM | GI50 ([8]; read-out: pGI50 (converted)): 3.31 µM | CC50 [8, 32]: > 100 µM | TGI ([8]; read-out: pTGI (converted)): > 100 µM | growth at 1 µM [9]: 87% | growth at 100 µM [10]: -7% | growth at 0.01 µM [11]: 99% | growth at 0.1 µM [12]: 97% | growth at 100 µM [13]: -30% | growth at 0.01 µM [14]: 100% | growth at 0.01 µM [15]: 96% | growth at 1 µM [16]: 80% | growth at 100 µM [17]: -24% | growth at 0.01 µM [18]: 100% | growth at 0.01 µM [19]: 96% | growth at 0.1 µM [20]: 100% | growth at 1 µM [21]: 77% | growth at 100 µM [22]: -43% | growth at 0.01 µM [23]: 100% | growth at 0.1 µM [24]: 88% | growth at 100 µM [25]: -3% | growth at 0.01 µM [26]: 92% | growth at 0.1 µM [28]: 101% | growth at 0.1 µM [29]: 90% | GI50 ([30]; read-out: GI50): 1.59 µM | CC50 [30, 31]: > 100 µM | TGI ([30]; read-out: TGI): 61.3 µM | GI50 ([30]; read-out: pGI50 (converted)): 1.7 µM | CC50 [30, 32]: > 100 µM | TGI ([30]; read-out: pTGI (converted)): 6.17 µM
